From patent publication US20240166646A1, “1H-PYRROLO[2,3-B]PYRIDINE DERIVATIVES AS BCL-2 INHIBITORS FOR THE TREATMENT OF NEOPLASTIC AND AUTOIMMUNE DISEASES” (Newave Pharmaceutical Inc., priority 2020, published 2024)
Where a name gives a salt, the structure may show the parent alone.

Molecular target: Bcl-2 (Homo sapiens (Human), UniProt P10415)
Assay: Bcl-2 competition binding (fluorescence polarization) assay
Conditions: fluorescein labeled BH3 peptide 15 nM, Bcl-2 protein 30 nM, 3 hours of incubation at room temperature
Procedure: Biological Example 1: Bcl-2 Competition Binding (Fluorescence Polarization) Assay
The fluorescence-labeled 23 amino acid peptide BH3 was purchased from CalBiochem ([…]). […] This binding assay was performed in 96-well plate and with each assay contained 15 and 30 nM of labeled peptide and purified Bcl-2 protein (purchased from R&D Systems, Inc). The assay buffer contained 20 mM Hepes (pH 7.0), 50 mM KCl, 5 mM MgCl2, 20 mM Na2MoO4, 0.1 mg/mi Bovine Gamma Globulin and 0.01% NP40. Compounds were diluted in DMS0 and added to the final assay with concentration range from 20 μM to 2 nM. The polarization degree (mP) value was determined by BioTek Synergy II with background subtraction after 3 hours of incubation at room temperature. IC50 was calculated using Prism software with sigmoidal dose-response curve fitting. ABT-737 was used as reference compound. Such assays, carried out with a range of doses of test compounds, allowed the determination of an approximate IC50 value.

Bcl-2, sequence (P10415 whole entry): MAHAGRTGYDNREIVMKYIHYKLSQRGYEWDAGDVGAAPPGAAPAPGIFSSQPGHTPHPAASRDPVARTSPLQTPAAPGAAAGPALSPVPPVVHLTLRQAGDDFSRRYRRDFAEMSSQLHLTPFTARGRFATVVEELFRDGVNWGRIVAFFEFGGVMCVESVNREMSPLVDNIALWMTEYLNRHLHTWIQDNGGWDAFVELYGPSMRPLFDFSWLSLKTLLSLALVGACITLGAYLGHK

Q: With `CC(C)Nc1ccccc1[C@@H]1CCCN1C1CC2(CCN(c3ccc(C(=O)NS(=O)(=O)c4ccc(NCC5CCOCC5)c([N+](=O)[O-])c4)c(N4c5cc6cc[nH]c6nc5O[C@@H]5COC[C@H]54)c3)CC2)C1` [Example 21, 2-[(11R,15S)-13,16-dioxa-2,4,10-triazatetracyclo[7.7.0.0^{3,7}.0^{11,15}]hexadeca-1(9),2,5,7-tetraen-10-yl]-4-{2-[(2S)-2-[2-(isopropylamino)phenyl]pyrrolidin-1-yl]-7-azaspiro[3.5]nonan-7-yl}-N-{3-nitro-4-[(oxan-4-ylmethyl)amino]benzenesulfonyl}benzamide hydrochloride] as the compound, how does the IC50 read?
A: 0.239 nM

Q: `O=C(NS(=O)(=O)c1ccc(NCC2CCOCC2)c([N+](=O)[O-])c1)c1ccc(N2CCC3(CC2)CC(N2CCC[C@H]2c2ccccc2C2CCC2)C3)cc1N1c2cc3cc[nH]c3nc2O[C@@H]2COC[C@H]21` [Example 22, 4-{2-[(2S)-2-(2-cyclobutylphenyl)pyrrolidin-1-yl]-7-azaspiro[3.5]nonan-7-yl}-2-[(11R,15S)-13,16-dioxa-2,4,10-triazatetracyclo[7.7.0.0^{3,7}.0^{11,15}]hexadeca-1(9),2,5,7-tetraen-10-yl]-N-{3-nitro-4-[(oxan-4-ylmethyl)amino]benzenesulfonyl}benzamide] was tested. Which IC50 did it give?
A: 0.1 nM

Q: With `O=C(NS(=O)(=O)c1ccc(NCC2CCOCC2)c([N+](=O)[O-])c1)c1ccc(N2CCC3(CC2)CC(N2CCC[C@H]2c2ccccc2Cl)C3)cc1N1c2cc3cc[nH]c3nc2O[C@@H]2COC[C@H]21` [Example 23, 4-{2-[(2S)-2-(2-chlorophenyl)pyrrolidin-1-yl]-7-azaspiro[3.5]nonan-7-yl}-2-[(11R,15S)-13,16-dioxa-2,4,10-triazatetracyclo[7.7.0.0^{3,7}.0^{11,15}]hexadeca-1(9),2,5,7-tetraen-10-yl]-N-{3-nitro-4-[(oxan-4-ylmethyl)amino]benzenesulfonyl}benzamide hydrochloride] as the compound, how does the IC50 read?
A: 0.587 nM

Q: How did the IC50 turn out when `O=C(NS(=O)(=O)c1ccc(NCC2CCOCC2)c([N+](=O)[O-])c1)c1ccc(N2CCC3(CC2)CC(N2CCC[C@H]2c2ccccc2F)C3)cc1N1c2cc3cc[nH]c3nc2O[C@@H]2COC[C@H]21` [Example 24, 2-[(11R,15S)-13,16-dioxa-2,4,10-triazatetracyclo[7.7.0.0^{3,7}.0^{11,15}]hexadeca-1(9),2,5,7-tetraen-10-yl]-4-{2-[(2S)-2-(2-fluorophenyl)pyrrolidin-1-yl]-7-azaspiro[3.5]nonan-7-yl}-N-{3-nitro-4-[(oxan-4-ylmethyl)amino]benzenesulfonyl}benzamide hydrochloride] was run?
A: 0.42 nM

Q: With `CS(=O)(=O)Nc1ccccc1[C@@H]1CCCN1C1CC2(CCN(c3ccc(C(=O)NS(=O)(=O)c4ccc(NCC5CCOCC5)c([N+](=O)[O-])c4)c(N4c5cc6cc[nH]c6nc5O[C@@H]5COC[C@H]54)c3)CC2)C1` [Example 25, 2-[(11R,15S)-13,16-dioxa-2,4,10-triazatetracyclo[7.7.0.0^{3,7}.0^{11,15}]hexadeca-1(9),2,5,7-tetraen-10-yl]-4-{2-[(2S)-2-(2-methanesulfonamidophenyl)pyrrolidin-1-yl]-7-azaspiro[3.5]nonan-7-yl}-N-{3-nitro-4-[(oxan-4-ylmethyl)amino]benzenesulfonyl}benzamide] as the compound, how does the IC50 read?
A: 14.8 nM

Q: `N#Cc1ccccc1[C@@H]1CCCN1C1CC2(CCN(c3ccc(C(=O)NS(=O)(=O)c4ccc(NCC5CCOCC5)c([N+](=O)[O-])c4)c(N4c5cc6cc[nH]c6nc5O[C@@H]5COC[C@H]54)c3)CC2)C1` [Example 26, 4-{2-[(2S)-2-(2-cyanophenyl)pyrrolidin-1-yl]-7-azaspiro[3.5]nonan-7-yl}-2-[(11R,15S)-13,16-dioxa-2,4,10-triazatetracyclo[7.7.0.0^{3,7}.0^{11,15}]hexadeca-1(9),2,5,7-tetraen-10-yl]-N-{3-nitro-4-[(oxan-4-ylmethyl)amino]benzenesulfonyl}benzamide] was tested. Which IC50 did it give?
A: 0.7 nM

Q: For `O=C(NS(=O)(=O)c1ccc(NCC2CCOCC2)c([N+](=O)[O-])c1)c1ccc(N2CCC3(CC2)CC(N2CCC[C@H]2c2ccccc2NCC(F)(F)F)C3)cc1N1c2cc3cc[nH]c3nc2O[C@@H]2COC[C@H]21` [Example 27, 2-[(11R,15S)-13,16-dioxa-2,4,10-triazatetracyclo[7.7.0.0^{3,7}.0^{11,15}]hexadeca-1(9),2,5,7-tetraen-10-yl]-N-{3-nitro-4-[(oxan-4-ylmethyl)amino]benzenesulfonyl}-4-{2-[(2S)-2-{2-[(2,2,2-trifluoroethyl)amino]phenyl}pyrrolidin-1-yl]-7-azaspiro[3.5]nonan-7-yl}benzamide], which IC50 is on record?
A: 1.2 nM

Q: With `CC(C)S(=O)(=O)c1ccccc1[C@@H]1CCCN1C1CC2(CCN(c3ccc(C(=O)NS(=O)(=O)c4ccc(NCC5CCOCC5)c([N+](=O)[O-])c4)c(N4c5cc6cc[nH]c6nc5O[C@@H]5COC[C@H]54)c3)CC2)C1` [Example 28, 2-[(11R,15S)-13,16-dioxa-2,4,10-triazatetracyclo[7.7.0.0^{3,7}.0^{11,15}]hexadeca-1(9),2,5,7-tetraen-10-yl]-N-{3-nitro-4-[(oxan-4-ylmethyl)amino]benzenesulfonyl}-4-{2-[(2S)-2-[2-(propane-2-sulfonyl)phenyl]pyrrolidin-1-yl]-7-azaspiro[3.5]nonan-7-yl}benzamide] as the compound, how does the IC50 read?
A: 31.2 nM

Q: For `CP(C)(=O)c1ccccc1[C@@H]1CCCN1C1CC2(CCN(c3ccc(C(=O)NS(=O)(=O)c4ccc(NCC5CCOCC5)c([N+](=O)[O-])c4)c(N4c5cc6cc[nH]c6nc5O[C@@H]5COC[C@H]54)c3)CC2)C1` [Example 29, 4-{2-[(2S)-2-[2-(dimethylphosphoryl)phenyl]pyrrolidin-1-yl]-7-azaspiro[3.5]nonan-7-yl}-2-[(11R,15S)-13,16-dioxa-2,4,10-triazatetracyclo[7.7.0.0^{3,7}.0^{11,15}]hexadeca-1(9),2,5,7-tetraen-10-yl]-N-{3-nitro-4-[(oxan-4-ylmethyl)amino]benzenesulfonyl}benzamide], which IC50 is on record?
A: 1.39 nM

Q: With `NC(=O)c1ccccc1[C@@H]1CCCN1C1CC2(CCN(c3ccc(C(=O)NS(=O)(=O)c4ccc(NCC5CCOCC5)c([N+](=O)[O-])c4)c(N4c5cc6cc[nH]c6nc5O[C@@H]5COC[C@H]54)c3)CC2)C1` [Example 30, 4-{2-[(2S)-2-(2-carbamoylphenyl)pyrrolidin-1-yl]-7-azaspiro[3.5]nonan-7-yl}-2-[(11R,15S)-13,16-dioxa-2,4,10-triazatetracyclo[7.7.0.0^{3,7}.0^{11,15}]hexadeca-1(9),2,5,7-tetraen-10-yl]-N-{3-nitro-4-[(oxan-4-ylmethyl)amino]benzenesulfonyl}benzamide] as the compound, how does the IC50 read?
A: 15.8 nM

Q: With `CC1(C)C[C@@H](c2ccccc2[C@@H]2CCCN2C2CC3(CCN(c4ccc(C(=O)NS(=O)(=O)c5ccc(NCC6CCOCC6)c([N+](=O)[O-])c5)c(N5c6cc7cc[nH]c7nc6O[C@@H]6COC[C@H]65)c4)CC3)C2)CCO1` [Example 31, 4-{2-[(2S)-2-{2-[(4S)-2,2-dimethyloxan-4-yl]phenyl}pyrrolidin-1-yl]-7-azaspiro[3.5]nonan-7-yl}-2-[(11R,15S)-13,16-dioxa-2,4,10-triazatetracyclo[7.7.0.0^{3,7}.0^{11,15}]hexadeca-1(9),2,5,7-tetraen-10-yl]-N-{3-nitro-4-[(oxan-4-ylmethyl)amino]benzenesulfonyl}benzamide] as the compound, how does the IC50 read?
A: 30.7 nM

Q: How did the IC50 turn out when `CC1(C)C[C@H](c2ccccc2[C@@H]2CCCN2C2CC3(CCN(c4ccc(C(=O)NS(=O)(=O)c5ccc(NCC6CCOCC6)c([N+](=O)[O-])c5)c(N5c6cc7cc[nH]c7nc6O[C@@H]6COC[C@H]65)c4)CC3)C2)CCO1` [Example 32, 4-{2-[(2S)-2-{2-[(4R)-2,2-dimethyloxan-4-yl]phenyl}pyrrolidin-1-yl]-7-azaspiro[3.5]nonan-7-yl}-2-[(11R,15S)-13,16-dioxa-2,4,10-triazatetracyclo[7.7.0.0^{3,7}.0^{11,15}]hexadeca-1(9),2,5,7-tetraen-10-yl]-N-{3-nitro-4-[(oxan-4-ylmethyl)amino]benzenesulfonyl}benzamide] was run?
A: 15.8 nM

Q: How did the IC50 turn out when `O=C(NS(=O)(=O)c1ccc(NCC2CCOCC2)c([N+](=O)[O-])c1)c1ccc(N2CCC3(CC2)CC(N2CCC[C@H]2c2cccc(Cl)c2)C3)cc1N1c2cc3cc[nH]c3nc2O[C@@H]2COC[C@H]21` [Example 33, 4-{2-[(2S)-2-(3-chlorophenyl)pyrrolidin-1-yl]-7-azaspiro[3.5]nonan-7-yl}-2-[(11R,15S)-13,16-dioxa-2,4,10-triazatetracyclo[7.7.0.0^{3,7}.0^{11,15}]hexadeca-1(9),2,5,7-tetraen-10-yl]-N-{3-nitro-4-[(oxan-4-ylmethyl)amino]benzenesulfonyl}benzamide] was run?
A: 1.42 nM

Q: `O=C(NS(=O)(=O)c1ccc(NCC2CCOCC2)c([N+](=O)[O-])c1)c1ccc(N2CCC3(CC2)CC(N2CCC[C@H]2c2ccc(Cl)cc2)C3)cc1N1c2cc3cc[nH]c3nc2O[C@@H]2COC[C@H]21` [Example 34, 4-{2-[(2S)-2-(4-chlorophenyl)pyrrolidin-1-yl]-7-azaspiro[3.5]nonan-7-yl}-2-[(11R,15S)-13,16-dioxa-2,4,10-triazatetracyclo[7.7.0.0^{3,7}.0^{11,15}]hexadeca-1(9),2,5,7-tetraen-10-yl]-N-{3-nitro-4-[(oxan-4-ylmethyl)amino]benzenesulfonyl}benzamide] was tested. Which IC50 did it give?
A: 3.5 nM
